The test addresses T1, cellular PARG (Homo sapiens, UniProt Q86W56).
T1 construct: endogenous in cells; host or cells: HeLa
As to the kind of experiment: Nuclear PAR accumulation assay (immunofluorescence high-content imaging, MMS-treated HeLa cells). It is filed as cell-based. As to conditions: 1 hour compound then MMS 50 μg/mL for an additional hour. Put shortly:
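HeLa cells pretreated with compound for 1 h at 37° C, then given 50 μg/mL MMS for another hour. After methanol fixation, PAR was immunostained with DAPI nuclear counterstain; per-nucleus intensity and percent PAR-positive cells were imaged at 20× (≥1,000 cells/well). IC50 from four-parameter logistic fit.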

The values below come from patent US20260285875A1, “INHIBITORS OF PARG” (858 Therapeutics, Inc., priority 2023, published 2026).

The term IC50 denotes the concentration that inhibits the measured activity by half. Higher therefore signals lower potency.

SMILES strings stand for the structures. Bounds are passed on as bounds.

T1 sequence (Q86W56 whole entry): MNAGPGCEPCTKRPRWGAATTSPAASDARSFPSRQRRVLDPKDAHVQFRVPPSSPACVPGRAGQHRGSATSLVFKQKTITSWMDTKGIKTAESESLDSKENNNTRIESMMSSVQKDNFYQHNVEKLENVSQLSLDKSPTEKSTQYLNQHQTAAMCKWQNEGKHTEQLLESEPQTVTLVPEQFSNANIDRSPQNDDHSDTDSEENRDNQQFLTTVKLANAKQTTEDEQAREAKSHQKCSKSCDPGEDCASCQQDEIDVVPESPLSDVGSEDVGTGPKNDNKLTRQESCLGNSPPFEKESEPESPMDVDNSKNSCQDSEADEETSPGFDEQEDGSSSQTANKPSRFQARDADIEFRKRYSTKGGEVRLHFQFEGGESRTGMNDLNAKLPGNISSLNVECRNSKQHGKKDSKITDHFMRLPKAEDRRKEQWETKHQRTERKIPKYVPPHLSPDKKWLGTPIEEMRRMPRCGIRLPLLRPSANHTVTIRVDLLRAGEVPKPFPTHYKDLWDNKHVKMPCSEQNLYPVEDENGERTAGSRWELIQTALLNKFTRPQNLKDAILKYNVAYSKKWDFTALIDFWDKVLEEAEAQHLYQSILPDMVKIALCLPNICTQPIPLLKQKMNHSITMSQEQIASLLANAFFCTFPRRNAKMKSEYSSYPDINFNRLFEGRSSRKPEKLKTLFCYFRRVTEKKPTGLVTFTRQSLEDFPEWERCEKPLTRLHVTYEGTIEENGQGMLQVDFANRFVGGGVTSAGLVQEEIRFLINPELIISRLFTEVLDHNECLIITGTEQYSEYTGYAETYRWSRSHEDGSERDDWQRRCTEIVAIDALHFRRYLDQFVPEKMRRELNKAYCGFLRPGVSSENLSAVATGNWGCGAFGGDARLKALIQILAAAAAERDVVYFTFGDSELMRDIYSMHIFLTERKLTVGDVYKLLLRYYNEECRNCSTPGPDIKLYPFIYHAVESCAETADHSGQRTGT

For `CN1C(=O)c2cc(S(=O)(=O)NC3(C)CC3)ccc2N2C1=NCC2C#Cc1ccc2nccn2n1` (stereo not shown) [Example 176, 1-(imidazo[1,2-b]pyridazin-6-ylethynyl)-4-methyl-N-(1-methylcyclopropyl)-5-oxo-1,2,4,5-tetrahydroimidazo[1,2-a]quinazoline-7-sulfonamide], the IC50 was 100 to 1000 nM.
Under `C[C@@H]1CN=C2N(Cc3cnn4c3CNCC4)C(=O)c3cc(S(=O)(=O)NC4(C)CC4)ccc3N21` [Example 177, (R)-1-methyl-N-(1-methylcyclopropyl)-5-oxo-4-((4,5,6,7-tetrahydropyrazolo[1,5-a]pyrazin-3-yl)methyl)-1,2,4,5-tetrahydroimidazo[1,2-a]quinazoline-7-sulfonamide] stands 100 to 1000 nM; under `CN1C(=O)c2cc(S(=O)(=O)NC3(C)CC3)ccc2N2C1=NCC2C#Cc1cnn2c1OCC1(COC1)C2` (stereo not shown) [Example 178, 1-((5′H,7′H-spiro[oxetane-3,6′-pyrazolo[5,1-b][1,3]oxazin]-3′-yl)ethynyl)-4-methyl-N-(1-methylcyclopropyl)-5-oxo-1,2,4,5-tetrahydroimidazo[1,2-a]quinazoline-7-sulfonamide], 100 to 1000 nM.
For `CN1C(=O)c2cc(S(=O)(=O)NC3(C)CC3)ccc2N2C1=NCC2C#Cc1cnsc1` (stereo not shown) [Example 179, 1-(isothiazol-4-ylethynyl)-4-methyl-N-(1-methylcyclopropyl)-5-oxo-1,2,4,5-tetrahydroimidazo[1,2-a]quinazoline-7-sulfonamide], the IC50 was < 100 nM.
The result for `CN1C(=O)c2cc(S(=O)(=O)NC3(C)CC3)ccc2N2C1=NC[C@H]2C#Cc1cnc2ccc(C#N)nn12` [Example 180, (R)-1-((6-cyanoimidazo[1,2-b]pyridazin-3-yl)ethynyl)-4-methyl-N-(1-methylcyclopropyl)-5-oxo-1,2,4,5-tetrahydroimidazo[1,2-a]quinazoline-7-sulfonamide] reads < 100 nM; that for `COc1ccc2ncc(C#C[C@@H]3CN=C4N(C)C(=O)c5cc(S(=O)(=O)NC6(C)CC6)ccc5N43)n2n1` [Example 181, (R)-1-((6-methoxyimidazo[1,2-b]pyridazin-3-yl)ethynyl)-4-methyl-N-(1-methylcyclopropyl)-5-oxo-1,2,4,5-tetrahydroimidazo[1,2-a]quinazoline-7-sulfonamide], < 100 nM.
The result for `Cc1cnn2c(C#C[C@@H]3CN=C4N(C)C(=O)c5cc(S(=O)(=O)NC6(C)CC6)ccc5N43)cnc2c1` [Example 182, (R)-4-methyl-N-(1-methylcyclopropyl)-1-((7-methylimidazo[1,2-b]pyridazin-3-yl)ethynyl)-5-oxo-1,2,4,5-tetrahydroimidazo[1,2-a]quinazoline-7-sulfonamide] reads < 100 nM; that for `Cc1ccc2ncc(C#C[C@@H]3CN=C4N(C)C(=O)c5cc(S(=O)(=O)NC6(C)CC6)ccc5N43)n2n1` [Example 183, (R)-4-methyl-N-(1-methylcyclopropyl)-1-((6-methylimidazo[1,2-b]pyridazin-3-yl)ethynyl)-5-oxo-1,2,4,5-tetrahydroimidazo[1,2-a]quinazoline-7-sulfonamide], < 100 nM; that for `[2H]C([2H])([2H])N1C(=O)c2cc(S(=O)(=O)NC3(C)CC3)ccc2N2C1=NCC2C#Cc1cnc2cccnn12` (stereo not shown) [Example 184, 1-(imidazo[1,2-b]pyridazin-3-ylethynyl)-4-(methyl-d3)-N-(1-methylcyclopropyl)-5-oxo-1,2,4,5-tetrahydroimidazo[1,2-a]quinazoline-7-sulfonamide], < 100 nM.
For the compound `CN1C(=O)c2cc(S(=O)(=O)NC3(C)CC3)ccc2N2C1=NC[C@H]2C#Cc1ccnn1C` [Example 185, (R)-4-methyl-1-((1-methyl-1H-pyrazol-5-yl)ethynyl)-N-(1-methylcyclopropyl)-5-oxo-1,2,4,5-tetrahydroimidazo[1,2-a]quinazoline-7-sulfonamide], the IC50 is < 100 nM.
Turning to `CCN1C(=O)c2cc(S(=O)(=O)NC3(C)CC3)ccc2N2C1=NC[C@H]2C#CC1(N(C)C)CC1` [Example 186, (R)-1-((1-(dimethylamino)cyclopropyl)ethynyl)-4-ethyl-N-(1-methylcyclopropyl)-5-oxo-1,2,4,5-tetrahydroimidazo[1,2-a]quinazoline-7-sulfonamide], the IC50 is < 100 nM.
On to `CCN1C(=O)c2cc(S(=O)(=O)NC3(C)CC3)ccc2N2C1=NC[C@H]2C#Cc1cnn(C)n1` [Example 187, (R)-4-ethyl-I-((2-methyl-2H-1,2,3-triazol-4-yl)ethynyl)-N-(1-methylcyclopropyl)-5-oxo-1,2,4,5-tetrahydroimidazo[1,2-a]quinazoline-7-sulfonamide], for which the IC50 is < 100 nM.
The result for `CCN1C(=O)c2cc(S(=O)(=O)NC3(C)CC3)ccc2N2C1=NC[C@H]2C#CC1CC1` [Example 188, (R)-1-(cyclopropylethynyl)-4-ethyl-N-(1-methylcyclopropyl)-5-oxo-1,2,4,5-tetrahydroimidazo[1,2-a]quinazoline-7-sulfonamide] reads < 100 nM.
In the case of `CCN1C(=O)c2cc(S(=O)(=O)NC3(C)CC3)ccc2N2C1=NC[C@H]2C#Cc1cnc2cccnn12` [Example 189, (R)-4-ethyl-1-(imidazo[1,2-b]pyridazin-3-ylethynyl)-N-(1-methylcyclopropyl)-5-oxo-1,2,4,5-tetrahydroimidazo[1,2-a]quinazoline-7-sulfonamide], the IC50 was < 100 nM.
The result for `CCN1C(=O)c2cc(S(=O)(=O)NC3(C)CC3)ccc2N2C1=NC[C@H]2C#Cc1cnn2cccnc12` [Example 190, (R)-4-ethyl-N-(1-methylcyclopropyl)-5-oxo-1-(pyrazolo[1,5-a]pyrimidin-3-ylethynyl)-1,2,4,5-tetrahydroimidazo[1,2-a]quinazoline-7-sulfonamide] reads < 100 nM; that for `CCN1C(=O)c2cc(S(=O)(=O)NC3(C)CC3)ccc2N2C1=NC[C@H]2C#Cc1cnc2cc(CN(C)C)cnn12` [Example 191, (R)-1-((7-((dimethylamino)methyl)imidazo[1,2-b]pyridazin-3-yl)ethynyl)-4-ethyl-N-(1-methylcyclopropyl)-5-oxo-1,2,4,5-tetrahydroimidazo[1,2-a]quinazoline-7-sulfonamide], < 100 nM.
With `Cc1cc(C#C[C@@H]2CN=C3N(Cc4cnn(C)c4)C(=O)c4cc(S(=O)(=O)NC5(C)CC5)ccc4N32)n(C)n1` [Example 192, (R)-1-((1,3-dimethyl-1H-pyrazol-5-yl)ethynyl)-4-((1-methyl-1H-pyrazol-4-yl)methyl)-N-(1-methylcyclopropyl)-5-oxo-1,2,4,5-tetrahydroimidazo[1,2-a]quinazoline-7-sulfonamide], the IC50 was < 100 nM.
Under `Cn1cc(CN2C(=O)c3cc(S(=O)(=O)NC4(C)CC4)ccc3N3C2=NC[C@H]3C#Cc2ccnn2C2CC2)cn1` [Example 193, (R)-1-((1-cyclopropyl-1H-pyrazol-5-yl)ethynyl)-4-((1-methyl-1H-pyrazol-4-yl)methyl)-N-(1-methylcyclopropyl)-5-oxo-1,2,4,5-tetrahydroimidazo[1,2-a]quinazoline-7-sulfonamide] stands < 100 nM; under `Cc1cc(C#C[C@@H]2CN=C3N(Cc4cnn(C)c4)C(=O)c4cc(S(=O)(=O)NC5(C)CC5)ccc4N32)sn1` [Example 194, (R)-4-((1-methyl-1H-pyrazol-4-yl)methyl)-N-(1-methylcyclopropyl)-1-((3-methylisothiazol-5-yl)ethynyl)-5-oxo-1,2,4,5-tetrahydroimidazo[1,2-a]quinazoline-7-sulfonamide], < 100 nM; under `CCN1C(=O)c2cc(S(=O)(=O)NC3(C)CC3)ccc2N2C1=NC[C@H]2C#Cc1cc(CN(C)C)nn1C` [Example 195, (R)-1-((3-((dimethylamino)methyl)-1-methyl-1H-pyrazol-5-yl)ethynyl)-4-ethyl-N-(1-methylcyclopropyl)-5-oxo-1,2,4,5-tetrahydroimidazo[1,2-a]quinazoline-7-sulfonamide], < 100 nM.
Take `Cn1cc(CN2C(=O)c3cc(S(=O)(=O)NC4(C)CC4)ccc3N3C2=NC[C@H]3C#Cc2ncnn2C)cn1` [Example 196, (R)-1-((1-methyl-1H-1,2,4-triazol-5-yl)ethynyl)-4-((1-methyl-1H-pyrazol-4-yl)methyl)-N-(1-methylcyclopropyl)-5-oxo-1,2,4,5-tetrahydroimidazo[1,2-a]quinazoline-7-sulfonamide]: the IC50 is < 100 nM.
The result for `CCN1C(=O)c2cc(S(=O)(=O)NC3(C)CC3)ccc2N2C1=NC[C@H]2C#Cc1ccnn1C` [Example 198, (R)-4-ethyl-1-((1-methyl-1H-pyrazol-5-yl)ethynyl)-N-(1-methylcyclopropyl)-5-oxo-1,2,4,5-tetrahydroimidazo[1,2-a]quinazoline-7-sulfonamide] reads < 100 nM; that for `CN1C(=O)c2cc(S(=O)(=O)NC3(C)CC3)ccc2N2C1=NC[C@H]2C#Cc1cnn(C)c(=O)c1` [Example 199, (R)-4-methyl-1-((1-methyl-6-oxo-1,6-dihydropyridazin-4-yl)ethynyl)-N-(1-methylcyclopropyl)-5-oxo-1,2,4,5-tetrahydroimidazo[1,2-a]quinazoline-7-sulfonamide], < 100 nM; that for `CN1C(=O)c2cc(S(=O)(=O)NC3(C)CC3)ccc2N2C1=NCC2C#Cc1ccn(C)c(=O)c1` (stereo not shown) [Example 200, 4-methyl-1-((1-methyl-2-oxo-1,2-dihydropyridin-4-yl)ethynyl)-N-(1-methylcyclopropyl)-5-oxo-1,2,4,5-tetrahydroimidazo[1,2-a]quinazoline-7-sulfonamide], 100 to 1000 nM.
Under `CN1C(=O)c2cc(S(=O)(=O)NC3(C)CC3)ccc2N2C1=NC[C@H]2C#Cc1cnc2ccc(C(F)(F)F)nn12` [Example 201, (R)-4-methyl-N-(1-methylcyclopropyl)-5-oxo-1-((6-(trifluoromethyl)imidazo[1,2-b]pyridazin-3-yl)ethynyl)-1,2,4,5-tetrahydroimidazo[1,2-a]quinazoline-7-sulfonamide] stands < 100 nM.
